According to publication PMC6576746, “Rational discovery of dual-indication multi-target PDE/Kinase inhibitor for precision anti-cancer therapy using structural systems pharmacology” (PLoS Computational Biology, 2019):

Key:
Assay in all cases: biochemical
Set-up in all cases: DiscoverX KinomeScan competition binding assay across human kinases; per cent of control at 10 and 100 uM
MLK1 = biological target: T1, MLK1 (Homo sapiens, UniProt P80192); conditions: competition binding, % of control; read-out: Percent Control (100 uM Levosimendan)
T1 construct: gene MAP3K9
Outline: (§1)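 KinomeScan competition binding was run across a human kinase panel at 10 μM and 100 μM levosimendan. Results are %control = (test − positive control)/(negative control − positive control) × 100.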

EIF2AK1 = EIF2AK1 (Homo sapiens, UniProt Q9BQI3); conditions: competition binding, % of control; read-out: Percent Control (100 uM Levosimendan)
Outline: as §1

PCTK1 = biological target: T2, PCTK1 (Homo sapiens, UniProt Q00536); conditions: competition binding, % of control; read-out: Percent Control (100 uM Levosimendan)
T2 construct: gene CDK16
Outline: as §1

ICK = biological target: T3, ICK (Homo sapiens, UniProt Q9UPZ9); conditions: competition binding, % of control; read-out: Percent Control (100 uM Levosimendan)
T3 construct: gene CILK1
Outline: as §1

ABL1-nonphosphorylated = biological target: T4, ABL1-nonphosphorylated (Homo sapiens, UniProt P00519); conditions: competition binding, % of control
T4 construct: nonphosphorylated
Outline: as §1

MARK1 = MARK1 (Homo sapiens, UniProt Q9P0L2); conditions: competition binding, % of control; read-out: Percent Control (100 uM Levosimendan)
Outline: as §1

DMPK2 = biological target: T5, DMPK2 (Homo sapiens, UniProt Q6DT37); conditions: competition binding, % of control; read-out: Percent Control (100 uM Levosimendan)
T5 construct: gene CDC42BPG
Outline: as §1

MAP3K3 = MAP3K3 (Homo sapiens, UniProt Q99759); conditions: competition binding, % of control; read-out: Percent Control (100 uM Levosimendan)
Outline: as §1

PIK4CB = biological target: T6, PIK4CB (Homo sapiens, UniProt Q9UBF8); conditions: competition binding, % of control; read-out: Percent Control (100 uM Levosimendan)
T6 construct: gene PI4KB
Outline: as §1

PFTAIRE2 = biological target: T7, PFTAIRE2 (Homo sapiens, UniProt Q96Q40); conditions: competition binding, % of control; read-out: Percent Control (100 uM Levosimendan)
T7 construct: gene CDK15
Outline: as §1

PIP5K2C = biological target: T8, PIP5K2C (Homo sapiens, UniProt Q8TBX8); conditions: competition binding, % of control
T8 construct: gene PIP4K2C
Outline: as §1

TSSK1B = TSSK1B (Homo sapiens, UniProt Q9BXA7); conditions: competition binding, % of control; read-out: Percent Control (100 uM Levosimendan)
Outline: as §1

INSRR = INSRR (Homo sapiens, UniProt P14616); conditions: competition binding, % of control; read-out: Percent Control (100 uM Levosimendan)
Outline: as §1

PKN1 = PKN1 (Homo sapiens, UniProt Q16512); conditions: competition binding, % of control; read-out: Percent Control (100 uM Levosimendan)
Outline: as §1

HIPK1 = HIPK1 (Homo sapiens, UniProt Q86Z02); conditions: competition binding, % of control
Outline: as §1

LRRK2 = LRRK2 (Homo sapiens, UniProt Q5S007); conditions: competition binding, % of control; read-out: Percent Control (100 uM Levosimendan)
Outline: as §1

CDK4 = CDK4 (Homo sapiens, UniProt P11802); conditions: competition binding, % of control; read-out: Percent Control (100 uM Levosimendan)
Outline: as §1

CAMK4 = CAMK4 (Homo sapiens, UniProt Q16566); conditions: competition binding, % of control; read-out: Percent Control (100 uM Levosimendan)
Outline: as §1

BIKE = biological target: T9, BIKE (Homo sapiens, UniProt Q9NSY1); conditions: competition binding, % of control
T9 construct: gene BMP2K
Outline: as §1

[1] = read-out: Percent Control (10 uM Levosimendan)
[2] = read-out: Percent Control (100 uM Levosimendan)

Sequence of HIPK1 (Q86Z02 whole entry): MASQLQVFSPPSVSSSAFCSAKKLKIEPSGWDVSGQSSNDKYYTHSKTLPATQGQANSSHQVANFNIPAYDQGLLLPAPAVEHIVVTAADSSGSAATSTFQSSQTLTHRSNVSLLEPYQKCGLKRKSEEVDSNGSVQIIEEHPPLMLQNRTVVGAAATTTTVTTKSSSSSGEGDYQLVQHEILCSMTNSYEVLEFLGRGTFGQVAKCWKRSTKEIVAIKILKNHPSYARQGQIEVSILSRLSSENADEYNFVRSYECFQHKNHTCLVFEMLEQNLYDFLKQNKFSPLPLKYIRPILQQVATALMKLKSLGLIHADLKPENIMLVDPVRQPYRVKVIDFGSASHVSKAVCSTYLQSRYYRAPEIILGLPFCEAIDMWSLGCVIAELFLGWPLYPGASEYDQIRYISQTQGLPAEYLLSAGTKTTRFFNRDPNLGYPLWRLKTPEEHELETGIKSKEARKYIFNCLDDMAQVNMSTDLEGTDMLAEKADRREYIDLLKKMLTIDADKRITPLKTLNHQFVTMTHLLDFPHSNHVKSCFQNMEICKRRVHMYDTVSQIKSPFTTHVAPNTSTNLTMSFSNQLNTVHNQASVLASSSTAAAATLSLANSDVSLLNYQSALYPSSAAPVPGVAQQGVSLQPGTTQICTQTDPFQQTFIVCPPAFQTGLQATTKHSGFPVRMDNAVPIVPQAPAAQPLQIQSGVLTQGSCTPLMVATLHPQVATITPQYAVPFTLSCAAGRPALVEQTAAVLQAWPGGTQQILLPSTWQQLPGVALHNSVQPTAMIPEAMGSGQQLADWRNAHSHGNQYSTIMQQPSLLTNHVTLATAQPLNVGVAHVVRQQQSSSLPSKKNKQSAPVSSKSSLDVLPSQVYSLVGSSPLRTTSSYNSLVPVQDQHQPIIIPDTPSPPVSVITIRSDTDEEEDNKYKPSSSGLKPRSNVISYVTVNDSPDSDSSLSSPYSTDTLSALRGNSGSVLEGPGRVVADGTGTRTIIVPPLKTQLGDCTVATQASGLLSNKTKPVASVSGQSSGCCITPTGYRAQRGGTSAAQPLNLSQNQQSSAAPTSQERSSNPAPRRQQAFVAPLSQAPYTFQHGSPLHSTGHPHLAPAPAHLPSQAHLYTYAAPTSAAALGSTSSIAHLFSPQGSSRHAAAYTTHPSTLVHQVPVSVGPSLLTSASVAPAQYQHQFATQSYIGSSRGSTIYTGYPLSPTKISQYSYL
T4 sequence (P00519 whole entry): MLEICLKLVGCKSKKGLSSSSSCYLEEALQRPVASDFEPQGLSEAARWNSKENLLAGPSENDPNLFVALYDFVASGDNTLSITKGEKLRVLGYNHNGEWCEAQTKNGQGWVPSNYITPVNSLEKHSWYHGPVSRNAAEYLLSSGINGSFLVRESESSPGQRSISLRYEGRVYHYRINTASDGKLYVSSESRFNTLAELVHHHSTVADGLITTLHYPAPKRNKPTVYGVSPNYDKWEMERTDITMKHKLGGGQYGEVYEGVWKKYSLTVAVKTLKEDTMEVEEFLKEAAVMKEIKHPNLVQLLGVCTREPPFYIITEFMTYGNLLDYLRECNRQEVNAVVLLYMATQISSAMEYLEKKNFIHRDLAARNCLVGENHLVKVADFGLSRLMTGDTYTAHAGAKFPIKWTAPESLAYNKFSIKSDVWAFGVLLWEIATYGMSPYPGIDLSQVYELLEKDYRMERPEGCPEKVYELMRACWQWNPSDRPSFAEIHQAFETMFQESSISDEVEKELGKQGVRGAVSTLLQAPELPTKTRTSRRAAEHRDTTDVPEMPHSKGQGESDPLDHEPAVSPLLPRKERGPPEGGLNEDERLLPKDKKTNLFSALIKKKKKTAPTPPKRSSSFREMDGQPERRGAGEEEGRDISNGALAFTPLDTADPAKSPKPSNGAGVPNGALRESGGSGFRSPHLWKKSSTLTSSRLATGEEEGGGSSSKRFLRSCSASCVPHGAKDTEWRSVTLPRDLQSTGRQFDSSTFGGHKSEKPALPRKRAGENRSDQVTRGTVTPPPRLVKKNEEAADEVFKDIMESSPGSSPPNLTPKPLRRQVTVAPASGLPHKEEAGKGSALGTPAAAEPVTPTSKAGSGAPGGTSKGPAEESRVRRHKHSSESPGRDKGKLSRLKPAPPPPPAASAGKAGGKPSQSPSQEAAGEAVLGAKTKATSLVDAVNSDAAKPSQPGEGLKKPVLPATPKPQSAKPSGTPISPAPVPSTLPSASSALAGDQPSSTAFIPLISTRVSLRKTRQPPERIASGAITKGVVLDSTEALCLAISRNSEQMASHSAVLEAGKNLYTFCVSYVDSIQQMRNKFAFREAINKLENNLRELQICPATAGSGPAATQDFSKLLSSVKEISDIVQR
T9 sequence (Q9NSY1 whole entry): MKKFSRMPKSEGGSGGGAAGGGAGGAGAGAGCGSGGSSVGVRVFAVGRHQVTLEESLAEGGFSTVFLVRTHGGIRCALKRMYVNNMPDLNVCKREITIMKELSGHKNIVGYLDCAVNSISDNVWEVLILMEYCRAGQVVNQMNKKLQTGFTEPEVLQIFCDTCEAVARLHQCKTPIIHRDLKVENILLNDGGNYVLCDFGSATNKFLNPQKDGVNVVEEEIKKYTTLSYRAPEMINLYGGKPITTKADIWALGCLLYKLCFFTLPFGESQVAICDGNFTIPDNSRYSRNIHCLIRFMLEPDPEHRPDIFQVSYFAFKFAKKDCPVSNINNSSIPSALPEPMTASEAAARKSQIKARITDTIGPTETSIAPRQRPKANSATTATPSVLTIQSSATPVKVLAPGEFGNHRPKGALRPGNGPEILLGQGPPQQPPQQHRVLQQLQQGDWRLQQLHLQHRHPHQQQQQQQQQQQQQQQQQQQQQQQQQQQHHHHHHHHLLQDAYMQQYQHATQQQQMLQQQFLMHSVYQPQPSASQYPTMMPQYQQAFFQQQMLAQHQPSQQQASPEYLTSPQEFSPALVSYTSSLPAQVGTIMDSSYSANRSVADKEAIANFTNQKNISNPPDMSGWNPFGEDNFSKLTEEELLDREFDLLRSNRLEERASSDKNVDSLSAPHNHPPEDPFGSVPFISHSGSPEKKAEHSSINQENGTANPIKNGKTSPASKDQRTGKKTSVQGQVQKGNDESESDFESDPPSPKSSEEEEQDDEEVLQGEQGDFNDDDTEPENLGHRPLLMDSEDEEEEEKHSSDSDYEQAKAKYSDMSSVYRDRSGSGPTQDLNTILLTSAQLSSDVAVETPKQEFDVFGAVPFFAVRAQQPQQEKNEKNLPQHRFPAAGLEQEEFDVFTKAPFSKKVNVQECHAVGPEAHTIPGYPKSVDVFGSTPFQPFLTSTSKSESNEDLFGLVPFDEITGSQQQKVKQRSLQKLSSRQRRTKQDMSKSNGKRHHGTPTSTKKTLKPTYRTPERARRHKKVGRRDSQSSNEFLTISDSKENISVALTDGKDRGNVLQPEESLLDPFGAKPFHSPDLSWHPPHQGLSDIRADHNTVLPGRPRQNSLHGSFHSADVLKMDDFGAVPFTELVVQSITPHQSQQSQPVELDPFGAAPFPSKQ
T8 sequence (Q8TBX8 whole entry): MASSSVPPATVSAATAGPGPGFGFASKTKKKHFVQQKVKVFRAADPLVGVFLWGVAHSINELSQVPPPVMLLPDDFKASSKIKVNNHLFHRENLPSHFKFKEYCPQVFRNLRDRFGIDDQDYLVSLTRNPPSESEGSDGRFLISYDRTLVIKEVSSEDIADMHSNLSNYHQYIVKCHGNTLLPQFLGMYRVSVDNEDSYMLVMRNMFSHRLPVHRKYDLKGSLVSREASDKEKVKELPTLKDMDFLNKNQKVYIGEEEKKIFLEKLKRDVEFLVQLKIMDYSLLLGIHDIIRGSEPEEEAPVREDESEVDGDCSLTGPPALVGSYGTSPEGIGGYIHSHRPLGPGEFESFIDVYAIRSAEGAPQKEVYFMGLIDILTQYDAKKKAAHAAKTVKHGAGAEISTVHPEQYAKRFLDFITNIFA
Sequence of MARK1 (Q9P0L2 whole entry): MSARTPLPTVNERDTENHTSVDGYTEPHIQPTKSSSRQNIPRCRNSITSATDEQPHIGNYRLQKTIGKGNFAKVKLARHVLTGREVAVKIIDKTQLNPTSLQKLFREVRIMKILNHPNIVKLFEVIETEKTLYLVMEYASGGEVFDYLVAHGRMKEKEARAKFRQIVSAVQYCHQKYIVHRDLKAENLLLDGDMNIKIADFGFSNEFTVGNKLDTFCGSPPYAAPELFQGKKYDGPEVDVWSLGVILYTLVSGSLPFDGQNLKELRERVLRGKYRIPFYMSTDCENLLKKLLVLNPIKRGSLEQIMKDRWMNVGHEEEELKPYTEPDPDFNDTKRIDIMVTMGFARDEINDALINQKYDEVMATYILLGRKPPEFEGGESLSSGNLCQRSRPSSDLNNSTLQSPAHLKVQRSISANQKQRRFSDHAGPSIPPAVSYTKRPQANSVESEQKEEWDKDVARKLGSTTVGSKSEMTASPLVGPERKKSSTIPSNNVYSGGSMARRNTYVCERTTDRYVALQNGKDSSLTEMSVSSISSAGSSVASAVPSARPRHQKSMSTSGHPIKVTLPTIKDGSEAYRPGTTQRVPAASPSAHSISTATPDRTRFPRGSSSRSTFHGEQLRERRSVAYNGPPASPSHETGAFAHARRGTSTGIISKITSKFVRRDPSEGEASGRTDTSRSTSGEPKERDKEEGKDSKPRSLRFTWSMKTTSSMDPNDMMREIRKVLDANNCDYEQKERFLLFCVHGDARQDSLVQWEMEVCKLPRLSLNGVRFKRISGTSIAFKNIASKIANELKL
Sequence of CDK4 (P11802 whole entry): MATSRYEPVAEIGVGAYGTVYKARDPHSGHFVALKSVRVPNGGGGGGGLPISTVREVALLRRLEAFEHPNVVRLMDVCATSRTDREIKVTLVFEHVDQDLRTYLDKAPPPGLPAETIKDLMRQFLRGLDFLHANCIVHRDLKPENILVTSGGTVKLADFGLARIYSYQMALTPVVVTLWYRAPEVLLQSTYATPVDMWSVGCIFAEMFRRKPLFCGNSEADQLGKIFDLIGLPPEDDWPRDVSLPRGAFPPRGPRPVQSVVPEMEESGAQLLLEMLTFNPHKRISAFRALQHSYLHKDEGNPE

Compound `C[C@@H]1CC(=O)NN=C1c1ccc(NN=C(C#N)C#N)cc1` [levosimendan] has a remaining binding at 100 µM (MLK1) of 79%, a remaining binding at 100 µM (EIF2AK1) of 100% and a remaining binding at 100 µM (PCTK1) of 88%. It also gave a remaining binding at 100 µM (ICK) of 94%, a remaining binding at 10 µM (ABL1-nonphosphorylated; [1]) of 94% and a remaining binding at 100 µM (ABL1-nonphosphorylated; [2]) of 49%. It also gave a remaining binding at 100 µM (MARK1) of 85%, a remaining binding at 100 µM (DMPK2) of 70% and a remaining binding at 100 µM (MAP3K3) of 66%. For the same compound, the remaining binding at 100 µM (PIK4CB) was 100%, the remaining binding at 100 µM (PFTAIRE2) was 85% and the remaining binding at 10 µM (PIP5K2C; [1]) was 52%. It also gave a remaining binding at 100 µM (PIP5K2C; [2]) of 5.9%, a remaining binding at 100 µM (TSSK1B) of 85% and a remaining binding at 100 µM (INSRR) of 96%. It also gave a remaining binding at 100 µM (PKN1) of 100%, a remaining binding at 10 µM (HIPK1; [1]) of 95% and a remaining binding at 100 µM (HIPK1; [2]) of 20%. It also gave a remaining binding at 100 µM (LRRK2) of 77%, a remaining binding at 100 µM (CDK4) of 100% and a remaining binding at 100 µM (CAMK4) of 100%. It also gave a remaining binding at 10 µM (BIKE; [1]) of 47% and a remaining binding at 100 µM (BIKE; [2]) of 2.2%.
